A short description of this experiment: Combination of the free target ligand of Formula II (GSK-1070916) with JQ1 (FIG. 3). The following applies: GSK-1070916 combined with JQ1; FIG. 3 legend, no model or method printed.

Each structure is given as a SMILES string.

These results are taken from patent US20220218831A1, “DEGRADATION OF AURORA KINASE (AURK) BY CONJUGATION OF AURK INHIBITORS WITH E3 LIGASE LIGAND” (Nemucore Medical Innovations, Inc., priority 2019, published 2022).

Take `CCn1cc(-c2ccnc3[nH]c(-c4cccc(CN(C)C)c4)cc23)c(-c2ccc(NC(=O)N(C)C)cc2)n1` [GSK-1070916]: the “effect of combination with JQ1” value is listed as “synergistic effect”.
